Results from ChEMBL document CHEMBL3132786, “Cytotoxic, immunomodulatory, antimycotic, and antiviral activities of semisynthetic 14-hydroxyabietane derivatives and triptoquinone C-4 epimers” (Medchemcomm, 2013).
Values after ≈ are worked out from the molar mass of the structure shown. Active and inactive are the calls of the source. The rule behind the calls is not given here.

How the values were obtained:
[1] = Selectivity ratio of IC50 for african green monkey Vero cells to IC50 for human HeLa cells; format: ADME, cell-based; settings: Vero cells versus HeLa cells, read-out: Ratio IC50
[2] = Selectivity ratio of IC50 for african green monkey Vero cells to IC50 for human Jurkat cells; format: ADME, cell-based; settings: Vero cells versus Jurkat cells, read-out: Ratio IC50
HeLa = test: Cytotoxicity against human HeLa cells after 48 hrs by MTT assay; format: functional, cell-based
Vero = test: Cytotoxicity against african green monkey Vero cells after 48 hrs by MTT assay; format: cell-based; settings: chlorocebus sabaeus
Jurkat [3] = test: Cytotoxicity against human Jurkat cells after 48 hrs by MTT assay; format: functional, cell-based
Aspergillus terreus [4] = test: Antifungal activity against Aspergillus terreus after 48 hrs by broth dilution method; format: functional
Aspergillus niger [5] = test: Antifungal activity against Aspergillus niger after 48 hrs by broth dilution method; format: functional
Aspergillus fumigatus [6] = test: Antifungal activity against Aspergillus fumigatus after 48 hrs by broth dilution method; format: functional
Aspergillus terreus [7] = test: Antifungal activity against Aspergillus terreus up to 100 ug/ml after 48 hrs by broth dilution method; format: functional, organism-based
Human alphaherpesvirus 1 = test: Antiviral activity against Herpes simplex virus type 1 infected in HeLa cells assessed as reduction in viral replication after 48 hrs; format: functional, organism-based
Aspergillus fumigatus [8] = test: Antifungal activity against Aspergillus fumigatus up to 100 ug/ml after 48 hrs by broth dilution method; format: functional, organism-based
Aspergillus flavus = test: Antifungal activity against Aspergillus flavus up to 100 ug/ml after 48 hrs by broth dilution method; format: functional, organism-based
Aspergillus niger [9] = test: Antifungal activity against Aspergillus niger up to 100 ug/ml after 48 hrs by broth dilution method; format: functional, organism-based
PBMC [10] = test: Effect on membrane integrity in human PBMCs; format: ADME, cell-based
Monocyte [11] = test: Reduction in IL-10 production in human monocytes at 5 to 15 ug/ml after 24 hrs by cytometric bead array method; format: functional, cell-based
Monocyte [12] = test: Reduction in TNF-alpha production in human monocytes at 5 to 15 ug/ml after 24 hrs by cytometric bead array method; format: functional, cell-based
Monocyte [13] = test: Reduction in IL-1beta production in human monocytes at 5 to 15 ug/ml after 24 hrs by cytometric bead array method; format: functional, cell-based
Monocyte [14] = test: Reduction in LPS-induced IL-10 production in human monocytes at 5 to 15 ug/ml pretreated before LPS addition after 24 hrs by cytometric bead array method; format: functional, cell-based
Monocyte [15] = test: Reduction in LPS-induced TNF-alpha production in human monocytes at 5 to 15 ug/ml pretreated before LPS addition after 24 hrs by cytometric bead array method; format: functional, cell-based
Monocyte [16] = test: Reduction in LPS-induced IL-1beta production in human monocytes at 5 to 15 ug/ml pretreated before LPS addition after 24 hrs by cytometric bead array method; format: functional, cell-based
Monocyte [17] = test: Inhibition of differentiation of LPS-stimulated human monocytes assessed as reduction in expression of HLA-DR at 5 to 15 ug/ml after 120 hrs by fluorescence assay; format: functional, cell-based
Jurkat [18] = test: Induction of apoptosis in human Jurkat cells assessed as DNA damage at 14 ug/ml after 24 hrs by TUNEL assay; format: functional
Jurkat [19] = test: Induction of apoptosis in human Jurkat cells assessed as DNA damage at 14 ug/ml after 15 hrs by TUNEL assay; format: functional
PBMC [20] = test: Effect on cell cycle distribution in human PBMCs assessed as hypoploidy at 14 ug/ml after 15 to 24 hrs by flow cytometry; format: ADME, cell-based
PBMC [21] = test: Effect on cell cycle distribution in human PBMCs at 14 ug/ml after 15 to 24 hrs by flow cytometry; format: ADME, cell-based
Jurkat [22] = test: Cell cycle arrest in human Jurkat cells assessed as hypoploidy at 14 ug/ml after 24 hrs by flow cytometry; format: functional
Jurkat [23] = test: Cell cycle arrest in human Jurkat cells assessed as hypoploidy at 14 ug/ml after 15 hrs by flow cytometry; format: functional
Jurkat [24] = test: Cell cycle arrest in human Jurkat cells assessed as accumulation at G2/M phase at 14 ug/ml after 24 hrs by flow cytometry; format: functional
Jurkat [25] = test: Cell cycle arrest in human Jurkat cells assessed as accumulation at G2/M phase at 14 ug/ml after 15 hrs by flow cytometry; format: functional
Jurkat [26] = test: Cell cycle arrest in human Jurkat cells assessed as decrease in G0/G1 phase at 14 ug/ml after 15 to 24 hrs by flow cytometry; format: functional, cell-based
PBMC [27] = test: Induction of apoptosis in human PBMCs assessed as apoptotic cells at 14 ug/ml after 24 hrs by annexin V/PI-based flow cytometry; format: cell-based
PBMC [28] = test: Induction of apoptosis in human PBMCs assessed as apoptotic cells at 14 ug/ml after 15 hrs by annexin V/PI-based flow cytometry; format: cell-based
Jurkat [29] = test: Induction of apoptosis in human Jurkat cells assessed as apoptotic cells at 14 ug/ml after 24 hrs by annexin V/PI-based flow cytometry; format: functional
Jurkat [30] = test: Induction of apoptosis in human Jurkat cells assessed as apoptotic cells at 14 ug/ml after 15 hrs by annexin V/PI-based flow cytometry; format: functional
Jurkat [31] = test: Effect on membrane integrity in human Jurkat cells; format: functional, cell-based
PBMC [32] = test: Reduction in membrane potential in human PBMCs at 7 to 14 ug/ml after 15 to 24 hrs using DiOC6(3) by flow cytometry; format: ADME, cell-based
Jurkat [33] = test: Reduction in membrane potential in human Jurkat cells at 7 ug/ml after 15 to 24 hrs using DiOC6(3) by flow cytometry; format: functional, cell-based
Jurkat [34] = test: Reduction in membrane potential in human Jurkat cells at 14 ug/ml after 24 hrs using DiOC6(3) by flow cytometry; format: functional
Jurkat [35] = test: Reduction in membrane potential in human Jurkat cells at 14 ug/ml after 15 hrs using DiOC6(3) by flow cytometry; format: functional
PBMC [36] = test: Antiproliferative activity against PHA-stimulated human PBMCs assessed as CD69 expression at 1 to 14 ug/ml treated post PHA stimulation measured after 12 hrs by flow cytometry; format: cell-based
PBMC [37] = test: Antiproliferative activity against PHA-stimulated human PBMCs assessed as CD69 expression pretreated at 1 to 14 ug/ml before PHA stimulation measured after 12 hrs by flow cytometry; format: cell-based
[38] = Antiproliferative activity against PHA-stimulated human CD8+ T cells at 7 to 14 ug/ml after 72 hrs by CFSE fluorescence staining-based flow cytometry; settings: t-cell
[39] = Antiproliferative activity against PHA-stimulated human CD4+ T cells at 7 to 14 ug/ml after 72 hrs by CFSE fluorescence staining-based flow cytometry; settings: t-cell
PBMC [40] = test: Antiproliferative activity against human PBMCs at 7 to 14 ug/ml after 48 hrs by CFSE fluorescence staining-based flow cytometry; format: cell-based
PBMC [41] = test: Antiproliferative activity against human PBMCs at 14 ug/ml after 48 hrs by CFSE fluorescence staining-based flow cytometry; format: cell-based
PBMC [42] = test: Antiproliferative activity against human PBMCs at 7 ug/ml after 48 hrs by CFSE fluorescence staining-based flow cytometry; format: cell-based
PBMC [43] = test: Reduction in membrane potential in human PBMCs at 14 ug/ml after 24 hrs using DiOC6(3) by flow cytometry; format: ADME, cell-based; design: scale not given: the % may be the effect or the level left
PBMC [44] = test: Reduction in membrane potential in human PBMCs at 14 ug/ml after 15 hrs using DiOC6(3) by flow cytometry; format: ADME, cell-based; design: scale not given: the % may be the effect or the level left
[45] = Antiproliferative activity against PHA-stimulated human CD8+ T cells at 14 ug/ml after 72 hrs by CFSE fluorescence staining-based flow cytometry; settings: t-cell
[46] = Antiproliferative activity against PHA-stimulated human CD4+ T cells at 14 ug/ml after 72 hrs by CFSE fluorescence staining-based flow cytometry; settings: t-cell

CC(C)c1ccc2c(c1O)CC[C@H]1[C@](C)(CO)CCC[C@]21C
selectivity ratio [1]: 0.71
selectivity ratio [2]: 2.3
inhibition (HeLa): Dose-dependent effect
inhibition (INH) (Vero): Dose-dependent effect
inhibition (Jurkat [3]): Dose-dependent effect
MIC (Aspergillus terreus [4]): 25 µg/mL (≈ 82.7 µM)
MIC (Aspergillus niger [5]): 50 µg/mL (≈ 165 µM)
MIC (Aspergillus fumigatus [6]): 25 µg/mL (≈ 82.7 µM)
Activity (Aspergillus terreus [7]): inactive
Activity (Human alphaherpesvirus 1): inactive
Activity (Aspergillus fumigatus [8]): inactive
Activity (Aspergillus flavus): inactive
Activity (Aspergillus niger [9]): inactive

CC(C)C1=CC(=O)C2=C(CC[C@H]3[C@](C)(C(=O)O)CCC[C@]23C)C1=O
Activity (PBMC [10]): Non-toxic
selectivity ratio [1]: 4.74
selectivity ratio [2]: 8.96
Activity (Monocyte [11]): inactive
Activity (Monocyte [12]): inactive
Activity (Monocyte [13]): inactive
Activity (Monocyte [14]): Active
Activity (Monocyte [15]): Active
Activity (Monocyte [16]): Active
Activity (Monocyte [17]): Active
Activity (Jurkat [18]): inactive
Activity (Jurkat [19]): inactive
Activity (PBMC [20]): Non-toxic
Activity (PBMC [21]): Non-toxic
Activity (Jurkat [22]): inactive
Activity (Jurkat [23]): inactive
Activity (Jurkat [24]): inactive
Activity (Jurkat [25]): inactive
Activity (Jurkat [26]): inactive
Activity (PBMC [27]): Toxic
Activity (PBMC [28]): Toxic
Activity (Jurkat [29]): Active
Activity (Jurkat [30]): Active
Activity (Jurkat [31]): inactive
Activity (PBMC [32]): Non-toxic
Activity (Jurkat [33]): inactive
Activity (Jurkat [34]): inactive
Activity (Jurkat [35]): inactive
Activity (PBMC [36]): Non-toxic
Activity (PBMC [37]): Non-toxic
Activity [38]: Non-toxic
Activity [39]: Non-toxic
Activity (PBMC [40]): Non-toxic
inhibition (HeLa): Dose-dependent effect
inhibition (INH) (Vero): Dose-dependent effect
inhibition (Jurkat [3]): Dose-dependent effect
Activity (Aspergillus terreus [7]): inactive
Activity (Human alphaherpesvirus 1): inactive
Activity (Aspergillus fumigatus [8]): inactive
Activity (Aspergillus flavus): inactive
Activity (Aspergillus niger [9]): inactive

CC(C)C1=CC(=O)C2=C(CC[C@H]3[C@](C)(CO)CCC[C@]23C)C1=O
Activity (PBMC [10]): Non-toxic
Activity (PBMC [41]): 82%
Activity (PBMC [42]): 77%
selectivity ratio [1]: 1
selectivity ratio [2]: 5.46
Activity (Monocyte [11]): inactive
Activity (Monocyte [12]): inactive
Activity (Monocyte [13]): inactive
Activity (Monocyte [14]): Active
Activity (Monocyte [15]): Active
Activity (Monocyte [16]): Active
Activity (Monocyte [17]): Active
Activity (Jurkat [18]): 35%
Activity (Jurkat [19]): 10%
Activity (PBMC [20]): Non-toxic
Activity (PBMC [21]): Non-toxic
Activity (Jurkat [22]): 35%
Activity (Jurkat [23]): 12%
Activity (Jurkat [24]): 15%
Activity (Jurkat [25]): 13%
Activity (Jurkat [26]): Active
Activity (PBMC [27]): 90%
Activity (PBMC [28]): 75%
Activity (Jurkat [29]): 86%
Activity (Jurkat [30]): 26%
Activity (PBMC [43]): 90%
Activity (Jurkat [31]): inactive
Activity (PBMC [44]): 20%
Activity (Jurkat [33]): inactive
Activity (Jurkat [34]): 25%
Activity (Jurkat [35]): 15%
Activity (PBMC [36]): Non-toxic
Activity (PBMC [37]): Non-toxic
Activity [45]: 77%
Activity [46]: 88%
Activity [38]: Non-toxic
Activity [39]: Non-toxic
inhibition (HeLa): Dose-dependent effect
inhibition (INH) (Vero): Dose-dependent effect
inhibition (Jurkat [3]): Dose-dependent effect
Activity (Aspergillus terreus [7]): inactive
Activity (Human alphaherpesvirus 1): inactive
Activity (Aspergillus fumigatus [8]): inactive
Activity (Aspergillus flavus): inactive
Activity (Aspergillus niger [9]): inactive
